Laboratory results taken from patent publication US20180273970A1, “PLASMID, TRANSFORMED PLANT CELL AND TRANSGENIC PLANT COMPRISING THE SAME, AND METHODS FOR PREPARING A TRANSGENIC PLANT AND FOR INCREASING YIELD OF A PLANT UNDER ABIOTIC STRESSES” (Academia Sinica, priority 2014, published 2018).

System: MYBS1-GFP
Experiment: Cellular localization of MYBS1-GFP in transfected barley aleurones (confocal microscopy)
Assay type: cell-based
Details: −S medium containing ABA, 48 h
Procedure: FIG. 10. ABA restricts SKINs, SnRK1A and MYBS1 in the cytoplasm under sugar starvation. Barley aleurones were co-transfected with indicated plasmid constructs and incubated in +S or −S medium with ABA (+ABA) or without ABA (−ABA) for 48 h. Thirty optical sections of 0.9-1.1 μm thickness were prepared for each cell and only five regularly spaced sections (sections 3, 9, 15, 21 and 27) are shown here. C and N indicate higher GFP signals, and c and n indicate lower GFP signals in the cytoplasm and nucleus, respectively. For more section images of each cell, see also FIG. 22 online. (A) Barley aleurones were transfected with Ubi:SKIN1-GFP, Ubi:SKIN2-GFP, Ubi:SnRK1A-GFP or Ubi:MYBS1-GFP alone. (B) Barley aleurones were transfected with Ubi.MYBS1-GFP alone (panel 1) or co-transfected with Ubi.MYBS1-GFP and Ubi:SnRK1A (panel 2), or with Ubi.MYBS1-GFP and Ubi:SnRK1A(Ri) (panel 3). (C) Barley aleurones were co-transfected with Ubi:SnRK1A-GFP and Ubi:SKIN(Ri). (D) Wild type rice (WT) or transgenic rice overexpression Ubi:SKIN(Ri) were transfected with Ubi:SnRK1A-GFP (panels 1-3) or Ubi.MYBS1-GFP (panels 4-6).
Detection of cellular localization of SKIN-GFP, SnRK1A-GFP and MYBS1-GFP fusion proteins were performed as described (Hong et al., 2012). […]

With `CC1=CC(=O)CC(C)(C)[C@@]1(O)/C=C/C(C)=C\C(=O)O` [ABA, abscisic acid] the “Localization of MYBS1-GFP” value was “exclusively localized in the cytoplasm”.
